In US10064883B2, “Lipiodol-based anti-tumour emulsion for treating cancer” (CHU DE DIJON, priority 2012, dated 2018):

What was measured:
Assay type in all cases: cell-based
SNU-449 = experiment: in vitro effectiveness of anticancer agents on CHC cell line SNU-449; details: SNU-449 CHC cell line
HepG2 = experiment: in vitro effectiveness of anticancer agents on CHC cell line HepG2
SNU-398 = experiment: in vitro effectiveness of anticancer agents on CHC cell line SNU-398; details: SNU-398 CHC cell line

Measured: effectiveness among the anticancer agents in vitro

CC(=O)[C@]1(O)Cc2c(O)c3c(c(O)c2[C@@H](O[C@H]2C[C@H](N)[C@H](O)[C@H](C)O2)C1)C(=O)c1ccccc1C3=O [Idarubicin]
most effective: SNU-449 | HepG2 | SNU-398
